# System: IL-1β
# Test: IL-1β secretion by ELISA in LPS-induced mouse splenocytes
# Format: cell-based
# Settings: LPS 2 μg/mL, peptide at 5 μM and 50 μM, 24 hours
# Description: Inflammation was induced in mouse splenocytes, and the secretion amounts of inflammatory cytokines TNFα, IL-1β, and IFNγ were confirmed. In order to induce inflammation, the cells were treated with an inflammation-inducing antigen, LPS, and since TNFα corresponds to a signaling protein associated with inflammation, IL-1β corresponds to a cytokine that promotes inflammation, and IFNγ also corresponds to a cytokine that promotes inflammation, the degree of inflammation can be confirmed by measuring the secretion amounts of TNFα, IL-1B, and IFNγ.
# Mouse splenocytes were dispensed into a 24-well plate at a concentration of 1×10^7 cells/well and cultured until the next day. The medium was replaced with serum-free medium, and after 4 hours, the cells were treated with LPS and the peptide of the present invention and then cultured again for another 24 hours. In order to induce inflammation, the cells were treated with LPS at 2 μg/mL, and the peptide at 5 μM and 50 μM, respectively. […]
substance,measurement,value
TWNS [peptide of the present invention],secretion amount of IL-1β,decreased
